A word on the IC50: it is the concentration needed to halve the response being measured. Read a low IC50 as higher potency.

This test concerns the target T1, Steryl-sulfatase (Homo sapiens, UniProt P08842).
T1 sequence (P08842 whole entry): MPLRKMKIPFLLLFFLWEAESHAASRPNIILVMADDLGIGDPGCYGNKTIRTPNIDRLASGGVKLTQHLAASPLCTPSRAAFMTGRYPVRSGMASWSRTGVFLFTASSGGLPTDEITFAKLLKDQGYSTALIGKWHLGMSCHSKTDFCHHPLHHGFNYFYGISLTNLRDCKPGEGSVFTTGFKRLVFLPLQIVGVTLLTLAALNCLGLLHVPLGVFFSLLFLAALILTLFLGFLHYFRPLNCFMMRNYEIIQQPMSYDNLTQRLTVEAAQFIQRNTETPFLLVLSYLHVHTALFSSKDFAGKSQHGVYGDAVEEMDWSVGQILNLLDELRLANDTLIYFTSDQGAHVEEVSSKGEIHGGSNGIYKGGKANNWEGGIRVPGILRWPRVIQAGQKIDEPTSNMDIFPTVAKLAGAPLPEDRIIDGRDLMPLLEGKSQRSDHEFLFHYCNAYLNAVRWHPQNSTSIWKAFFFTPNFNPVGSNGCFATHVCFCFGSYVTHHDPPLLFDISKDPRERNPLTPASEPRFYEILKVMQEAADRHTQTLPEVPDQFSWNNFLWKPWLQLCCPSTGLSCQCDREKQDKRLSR
In words: ChEBML_68022. From the text:
In vitro inhibition of estrone sulfatase.

In the case of `Cc1ccc(OS(N)(=O)=O)cc1` [Sulfamic acid p-tolyl ester], the IC50 was greater than 10000 µM. For `Cc1cccc(OS(N)(=O)=O)c1` [Sulfamic acid m-tolyl ester] the value was 2090 µM.

On to `NS(=O)(=O)OCC(Cl)(Cl)Cl` [Sulfamic acid 2,2,2-trichloro-ethyl ester], for which it took 750 µM to reach half-maximal inhibition (IC50). As for `NS(=O)(=O)Oc1ccc(F)cc1` [4-fluorophenyl sulfamate], the IC50 was found to be 537 µM. For `NS(=O)(=O)Oc1cccc(I)c1` [Sulfamic acid 3-iodo-phenyl ester] the value was 120 µM; for `NS(=O)(=O)Oc1ccc(I)cc1` [Sulfamic acid 4-iodo-phenyl ester], 560 µM; for `NS(=O)(=O)Oc1ccccc1`, greater than 10000 µM.

The record behind these values is BindingDB's records for doi:10.1016/s0960-894x(02)00137-3 (Kingston University, 2002).
